Measured values taken from patent US12497365B2, “4-pyridinyl formamide compound or derivative thereof, preparation method therefor, herbicidal composition and use thereof” (Qingdao Kingagroot Chemical Compound Co., Ltd., priority 2019, dated 2025).

How the values were obtained:
Experiment in all cases: Weeding effect in post-emergence stage
Type in all cases: in vivo
Conditions in all cases: active ingredient 2000 g/ha, 3 weeks after application, fresh weight control rate
[1] = tested on: Descurainia sophia
Description: (§1) The activity level criteria for plant damage (i.e., growth control rate) are as follows:
(§2) The above growth control rates are fresh weight control rates.
(§3) Experiment on weeding effect in post-emergence stage: monocotyledonous and dicotyledonous weed seeds and major crop seeds (wheat, corn, rice, soybean, cotton, oilseed rape, millet, sorghum) were placed in plastic pots filled with soil, then covered with 0.5-2 cm of soil, allowed to grow in a good greenhouse environment. After 2 weeks of sowing, the test plants were treated in the 2-3 leaf stage. The tested compounds of the present invention were respectively dissolved in acetone at the dosage of 2000, 1000, 500, 250, 125 g/ha, then added with Tween 80 and 1.5 liter/ha of emulsifiable concentrate of methyl oleate as synergist, diluted with a certain amount of water to obtain a solution with a certain concentration, and sprayed with a spray tower onto the plants. After the application, the plants were cultured for 3 weeks in the greenhouse, and then the experimental results were listed in Table 1.

[2] = tested on: Amaranthus retroflexus L.
Description: as §1, §2, §3

[3] = tested on: Chenopodium album
Description: as §1, §2, §3

[4] = tested on: Abutilon theophrasti
Description: as §1, §2, §3

Question: What does the source list for `Cn1nnnc1NC(=O)c1ccnc(-c2ccc(F)cc2F)c1Cl` [Compound 1-64]?
Answer: Weeding effect, activity level (growth control rate), Descurainia sophia [1]: 5 (Level 5: growth control rate is above 85%); Weeding effect, activity level (growth control rate), Amaranthus retroflexus L. [2]: 5 (Level 5: growth control rate is above 85%); Weeding effect, activity level (growth control rate), Chenopodium album [3]: 5 (Level 5: growth control rate is above 85%); Weeding effect, activity level (growth control rate), Abutilon theophrasti [4]: 5 (Level 5: growth control rate is above 85%)

Question: Which results are given for `CSc1nccc(C(=O)Nc2nnnn2C)c1Cl` [Compound 1-2065]?
Answer: Weeding effect, activity level (growth control rate), Descurainia sophia [1]: 5 (Level 5: growth control rate is above 85%); Weeding effect, activity level (growth control rate), Amaranthus retroflexus L. [2]: 5 (Level 5: growth control rate is above 85%); Weeding effect, activity level (growth control rate), Chenopodium album [3]: 5 (Level 5: growth control rate is above 85%); Weeding effect, activity level (growth control rate), Abutilon theophrasti [4]: 5 (Level 5: growth control rate is above 85%)

Question: What does the source list for `Cn1nnnc1NC(=O)c1ccnc(C2=CCOCC2)c1Cl` [Compound 1-7]?
Answer: Weeding effect, activity level (growth control rate), Descurainia sophia [1]: 5 (Level 5: growth control rate is above 85%); Weeding effect, activity level (growth control rate), Amaranthus retroflexus L. [2]: 5 (Level 5: growth control rate is above 85%); Weeding effect, activity level (growth control rate), Chenopodium album [3]: 5 (Level 5: growth control rate is above 85%); Weeding effect, activity level (growth control rate), Abutilon theophrasti [4]: 5 (Level 5: growth control rate is above 85%)

Question: Which results are given for `CC(=O)Nc1ccc(-c2nccc(C(=O)Nc3nnnn3C)c2Cl)cc1` [Compound 1-47]?
Answer: Weeding effect, activity level (growth control rate), Descurainia sophia [1]: 5 (Level 5: growth control rate is above 85%); Weeding effect, activity level (growth control rate), Amaranthus retroflexus L. [2]: 5 (Level 5: growth control rate is above 85%); Weeding effect, activity level (growth control rate), Chenopodium album [3]: 5 (Level 5: growth control rate is above 85%); Weeding effect, activity level (growth control rate), Abutilon theophrasti [4]: 5 (Level 5: growth control rate is above 85%)

Question: What does the source list for `Cn1nnnc1NC(=O)c1ccnc(-c2ccc(O)cc2)c1Cl` [Compound 1-35]?
Answer: Weeding effect, activity level (growth control rate), Descurainia sophia [1]: 5 (Level 5: growth control rate is above 85%); Weeding effect, activity level (growth control rate), Amaranthus retroflexus L. [2]: 5 (Level 5: growth control rate is above 85%); Weeding effect, activity level (growth control rate), Chenopodium album [3]: 5 (Level 5: growth control rate is above 85%); Weeding effect, activity level (growth control rate), Abutilon theophrasti [4]: 5 (Level 5: growth control rate is above 85%)

Question: `CCCn1cc(-c2nccc(C(=O)Nc3nnnn3C)c2Cl)cn1` [Compound 1-173] was tested. Which “Weeding effect, activity level (growth control rate), Descurainia sophia” value (shortened to “Weeding effect … Descurainia sophia”) [1] did it give?
Answer: Its value is 5 (Level 5: growth control rate is above 85%).

Question: And the “Weeding effect, activity level (growth control rate), Amaranthus retroflexus L.” value (“Weeding effect … Amaranthus retroflexus L.” for short) [2]?
Answer: The value was 5 (Level 5: growth control rate is above 85%).

Question: What about the “Weeding effect, activity level (growth control rate), Chenopodium album” value (shortened to “Weeding effect … Chenopodium album”) [3] of the same compound?
Answer: Its value is 5 (Level 5: growth control rate is above 85%).

Question: And the “Weeding effect, activity level (growth control rate), Abutilon theophrasti” value (“Weeding effect … Abutilon theophrasti” below) [4]?
Answer: The value was 5 (Level 5: growth control rate is above 85%).

Question: Which results are given for `Cc1ccncc1-c1nccc(C(=O)Nc2nnnn2C)c1Cl` [Compound 1-125]?
Answer: Weeding effect, activity level (growth control rate), Descurainia sophia [1]: 5 (Level 5: growth control rate is above 85%); Weeding effect, activity level (growth control rate), Amaranthus retroflexus L. [2]: 5 (Level 5: growth control rate is above 85%); Weeding effect, activity level (growth control rate), Chenopodium album [3]: 5 (Level 5: growth control rate is above 85%); Weeding effect, activity level (growth control rate), Abutilon theophrasti [4]: 5 (Level 5: growth control rate is above 85%)

Question: With `Cc1ccccc1-c1nccc(C(=O)Nc2nnnn2C)c1Cl` [Compound 1-9] as the compound, how does the “Weeding effect … Descurainia sophia” value [1] read?
Answer: Its value is 5 (Level 5: growth control rate is above 85%).

Question: What about the “Weeding effect … Amaranthus retroflexus L.” value [2] of the same compound?
Answer: Its value is 5 (Level 5: growth control rate is above 85%).

Question: What about the “Weeding effect … Chenopodium album” value [3] of the same compound?
Answer: Its value is 5 (Level 5: growth control rate is above 85%).

Question: What about the “Weeding effect … Abutilon theophrasti” value [4] of the same compound?
Answer: Its value is 5 (Level 5: growth control rate is above 85%).

Question: For `COc1ccc(-c2nccc(C(=O)Nc3nnnn3C)c2Cl)c(Cl)c1` [Compound 1-102], which “Weeding effect … Descurainia sophia” value [1] is on record?
Answer: The value was 5 (Level 5: growth control rate is above 85%).

Question: What about the “Weeding effect … Amaranthus retroflexus L.” value [2] of the same compound?
Answer: Its value is 5 (Level 5: growth control rate is above 85%).

Question: And the “Weeding effect … Chenopodium album” value [3]?
Answer: The value was 5 (Level 5: growth control rate is above 85%).

Question: And the “Weeding effect … Abutilon theophrasti” value [4]?
Answer: The value was 5 (Level 5: growth control rate is above 85%).

Question: What does the source list for `Cn1nnnc1NC(=O)c1ccnc(-c2cc(Br)ccc2Br)c1Cl` [Compound 1-96]?
Answer: Weeding effect, activity level (growth control rate), Descurainia sophia [1]: 5 (Level 5: growth control rate is above 85%); Weeding effect, activity level (growth control rate), Amaranthus retroflexus L. [2]: 5 (Level 5: growth control rate is above 85%); Weeding effect, activity level (growth control rate), Chenopodium album [3]: 5 (Level 5: growth control rate is above 85%); Weeding effect, activity level (growth control rate), Abutilon theophrasti [4]: 5 (Level 5: growth control rate is above 85%)

Question: What does the source list for `Cn1nnnc1NC(=O)c1ccnc(-c2cccc3ccccc23)c1Cl` [Compound 1-111]?
Answer: Weeding effect, activity level (growth control rate), Descurainia sophia [1]: 5 (Level 5: growth control rate is above 85%); Weeding effect, activity level (growth control rate), Amaranthus retroflexus L. [2]: 5 (Level 5: growth control rate is above 85%); Weeding effect, activity level (growth control rate), Chenopodium album [3]: 5 (Level 5: growth control rate is above 85%); Weeding effect, activity level (growth control rate), Abutilon theophrasti [4]: 5 (Level 5: growth control rate is above 85%)

Question: For `Cn1ccnc1-c1nccc(C(=O)Nc2nnnn2C)c1Cl` [Compound 1-233], which “Weeding effect … Descurainia sophia” value [1] is on record?
Answer: The value was 5 (Level 5: growth control rate is above 85%).

Question: What about the “Weeding effect … Amaranthus retroflexus L.” value [2] of the same compound?
Answer: Its value is 5 (Level 5: growth control rate is above 85%).

Question: And the “Weeding effect … Chenopodium album” value [3]?
Answer: Its value is 5 (Level 5: growth control rate is above 85%).

Question: What about the “Weeding effect … Abutilon theophrasti” value [4] of the same compound?
Answer: Its value is 5 (Level 5: growth control rate is above 85%).

Question: With `Cn1nnnc1NC(=O)c1ccnc(C(C)(C)C)c1Cl` [Compound 1-2] as the compound, how does the “Weeding effect … Descurainia sophia” value [1] read?
Answer: Its value is 5 (Level 5: growth control rate is above 85%).

Question: And the “Weeding effect … Amaranthus retroflexus L.” value [2]?
Answer: The value was 5 (Level 5: growth control rate is above 85%).

Question: And the “Weeding effect … Chenopodium album” value [3]?
Answer: The value was 5 (Level 5: growth control rate is above 85%).

Question: What about the “Weeding effect … Abutilon theophrasti” value [4] of the same compound?
Answer: The value was 5 (Level 5: growth control rate is above 85%).

Question: Which results are given for `O=C(Nc1nnc(C2CC2)o1)c1ccnc(-c2ccc(F)cc2)c1Cl` [Compound 1-1257]?
Answer: Weeding effect, activity level (growth control rate), Descurainia sophia [1]: 5 (Level 5: growth control rate is above 85%); Weeding effect, activity level (growth control rate), Amaranthus retroflexus L. [2]: 5 (Level 5: growth control rate is above 85%); Weeding effect, activity level (growth control rate), Chenopodium album [3]: 5 (Level 5: growth control rate is above 85%); Weeding effect, activity level (growth control rate), Abutilon theophrasti [4]: 5 (Level 5: growth control rate is above 85%)

Question: Which “Weeding effect … Descurainia sophia” value [1] does the source give for `CCCCCc1ccc(-c2nccc(C(=O)Nc3nnnn3C)c2Cl)cc1` [Compound 1-13] here?
Answer: Its value is 5 (Level 5: growth control rate is above 85%).

Question: What about the “Weeding effect … Amaranthus retroflexus L.” value [2] of the same compound?
Answer: The value was 5 (Level 5: growth control rate is above 85%).

Question: What about the “Weeding effect … Chenopodium album” value [3] of the same compound?
Answer: The value was 5 (Level 5: growth control rate is above 85%).

Question: And the “Weeding effect … Abutilon theophrasti” value [4]?
Answer: Its value is 5 (Level 5: growth control rate is above 85%).

Question: Which results are given for `Cn1nnnc1NC(=O)c1ccnc(-c2ccnc(Cl)c2)c1Cl` [Compound 1-151]?
Answer: Weeding effect, activity level (growth control rate), Descurainia sophia [1]: 5 (Level 5: growth control rate is above 85%); Weeding effect, activity level (growth control rate), Amaranthus retroflexus L. [2]: 5 (Level 5: growth control rate is above 85%); Weeding effect, activity level (growth control rate), Chenopodium album [3]: 5 (Level 5: growth control rate is above 85%); Weeding effect, activity level (growth control rate), Abutilon theophrasti [4]: 5 (Level 5: growth control rate is above 85%)

Question: Which “Weeding effect … Descurainia sophia” value [1] does the source give for `Cc1cccc(-c2nccc(C(=O)Nc3nnnn3C)c2Cl)c1` [Compound 1-10] here?
Answer: Its value is 5 (Level 5: growth control rate is above 85%).

Question: And the “Weeding effect … Amaranthus retroflexus L.” value [2]?
Answer: The value was 5 (Level 5: growth control rate is above 85%).

Question: And the “Weeding effect … Chenopodium album” value [3]?
Answer: The value was 5 (Level 5: growth control rate is above 85%).

Question: And the “Weeding effect … Abutilon theophrasti” value [4]?
Answer: Its value is 5 (Level 5: growth control rate is above 85%).

Question: Which “Weeding effect … Descurainia sophia” value [1] does the source give for `Cn1nnnc1NC(=O)c1ccnc(-c2ccc(F)nn2)c1Cl` [Compound 1-154] here?
Answer: Its value is 5 (Level 5: growth control rate is above 85%).

Question: What about the “Weeding effect … Amaranthus retroflexus L.” value [2] of the same compound?
Answer: Its value is 5 (Level 5: growth control rate is above 85%).

Question: And the “Weeding effect … Chenopodium album” value [3]?
Answer: The value was 5 (Level 5: growth control rate is above 85%).

Question: And the “Weeding effect … Abutilon theophrasti” value [4]?
Answer: Its value is 5 (Level 5: growth control rate is above 85%).

Question: `Cn1nnnc1NC(=O)c1ccnc(-c2ccc(F)cc2)c1SCCl` [Compound 1-211] was tested. Which “Weeding effect … Descurainia sophia” value [1] did it give?
Answer: Its value is 5 (Level 5: growth control rate is above 85%).

Question: What about the “Weeding effect … Amaranthus retroflexus L.” value [2] of the same compound?
Answer: The value was 5 (Level 5: growth control rate is above 85%).

Question: And the “Weeding effect … Chenopodium album” value [3]?
Answer: The value was 5 (Level 5: growth control rate is above 85%).

Question: And the “Weeding effect … Abutilon theophrasti” value [4]?
Answer: Its value is 5 (Level 5: growth control rate is above 85%).

Question: `Cn1nnnc1NC(=O)c1ccnc(-c2cc(C(=O)O)cc([N+](=O)[O-])c2)c1Cl` [Compound 1-100] was tested. Which “Weeding effect … Descurainia sophia” value [1] did it give?
Answer: Its value is 5 (Level 5: growth control rate is above 85%).

Question: What about the “Weeding effect … Amaranthus retroflexus L.” value [2] of the same compound?
Answer: The value was 5 (Level 5: growth control rate is above 85%).

Question: What about the “Weeding effect … Chenopodium album” value [3] of the same compound?
Answer: Its value is 5 (Level 5: growth control rate is above 85%).

Question: What about the “Weeding effect … Abutilon theophrasti” value [4] of the same compound?
Answer: Its value is 5 (Level 5: growth control rate is above 85%).

Question: What does the source list for `Cn1nnnc1NC(=O)c1ccnc(-c2ccc[nH]2)c1Cl` [Compound 1-2006]?
Answer: Weeding effect, activity level (growth control rate), Descurainia sophia [1]: 5 (Level 5: growth control rate is above 85%); Weeding effect, activity level (growth control rate), Amaranthus retroflexus L. [2]: 5 (Level 5: growth control rate is above 85%); Weeding effect, activity level (growth control rate), Chenopodium album [3]: 5 (Level 5: growth control rate is above 85%); Weeding effect, activity level (growth control rate), Abutilon theophrasti [4]: 5 (Level 5: growth control rate is above 85%)
